Results on 13 compounds are retold here after patent US12516056B2, “Compounds for inhibition of janus kinase 1” (MANKIND PHARMA LTD., priority 2019, dated 2026).

Bounds are passed on as bounds.

One assay concerns the target T1, Recombinant JAK1 (Homo sapiens, UniProt P23458).
T1 construct: purchased Carna Biosciences
Put plainly: JAK biochemical assay (LANCE Ultra TR-FRET), JAK1. To be noted: recombinant JAK1, TR-FRET; read-out: Biochemical Assay (μM) JAK1. A digest of the protocol:
(§1)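 % inhibition relative to vehicle was derived from TR-FRET signal proportional to ULight-substrate phosphorylation. Reactions used recombinant kinase in HEPES pH 7.5 buffer containing EGTA, MgCl2, DTT and Tween-20.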

A further assay has as its target T2, Recombinant JAK2 (Homo sapiens, UniProt O60674).
T2 construct: purchased Carna Biosciences
Put plainly: JAK biochemical assay (LANCE Ultra TR-FRET), JAK2. To be noted: recombinant JAK2, TR-FRET; read-out: Biochemical Assay (μM) JAK2. A digest of the protocol:
as §1
(In general: In TR-FRET formats the signal depends on donor and acceptor labels being close together.)

For a further assay, the target named is T3, Recombinant JAK3 (Homo sapiens, UniProt P52333).
T3 construct: purchased Carna Biosciences
T3 sequence (P52333 1-1124): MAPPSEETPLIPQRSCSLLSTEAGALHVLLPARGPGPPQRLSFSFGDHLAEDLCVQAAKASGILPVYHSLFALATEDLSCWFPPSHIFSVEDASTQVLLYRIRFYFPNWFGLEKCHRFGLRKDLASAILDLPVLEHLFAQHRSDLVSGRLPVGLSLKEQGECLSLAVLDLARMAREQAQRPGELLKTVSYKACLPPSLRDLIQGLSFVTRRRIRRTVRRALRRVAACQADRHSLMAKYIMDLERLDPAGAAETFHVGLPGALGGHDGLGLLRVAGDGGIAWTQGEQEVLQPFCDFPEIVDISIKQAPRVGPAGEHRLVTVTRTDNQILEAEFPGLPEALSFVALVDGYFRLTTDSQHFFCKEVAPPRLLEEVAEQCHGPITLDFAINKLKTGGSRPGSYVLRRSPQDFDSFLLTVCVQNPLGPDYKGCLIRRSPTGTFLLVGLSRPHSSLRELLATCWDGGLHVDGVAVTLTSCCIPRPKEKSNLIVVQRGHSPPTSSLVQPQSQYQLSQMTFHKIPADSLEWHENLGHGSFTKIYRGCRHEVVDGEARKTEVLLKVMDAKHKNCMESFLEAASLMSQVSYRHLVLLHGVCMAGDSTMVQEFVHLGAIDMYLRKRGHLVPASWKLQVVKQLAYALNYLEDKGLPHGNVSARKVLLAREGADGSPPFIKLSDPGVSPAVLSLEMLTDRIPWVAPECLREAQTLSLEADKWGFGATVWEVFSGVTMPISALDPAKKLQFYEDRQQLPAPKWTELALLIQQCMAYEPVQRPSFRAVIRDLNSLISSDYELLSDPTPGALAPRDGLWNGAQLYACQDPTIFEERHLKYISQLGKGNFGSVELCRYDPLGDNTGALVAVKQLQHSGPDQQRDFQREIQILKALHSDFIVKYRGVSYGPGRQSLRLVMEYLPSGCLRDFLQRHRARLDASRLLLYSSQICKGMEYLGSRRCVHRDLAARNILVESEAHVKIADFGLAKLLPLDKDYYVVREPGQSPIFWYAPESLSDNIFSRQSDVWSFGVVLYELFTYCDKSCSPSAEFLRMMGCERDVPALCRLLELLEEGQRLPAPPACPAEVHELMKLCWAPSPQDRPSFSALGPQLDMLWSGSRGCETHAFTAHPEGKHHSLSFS
Put plainly: JAK biochemical assay (LANCE Ultra TR-FRET), JAK3. The note with it: recombinant JAK3, TR-FRET; read-out: Biochemical Assay (μM) JAK3. Put shortly:
as §1

Another assay concerns the target T4, Recombinant TYK2 (Homo sapiens, UniProt P29597).
T4 construct: purchased Carna Biosciences
Put plainly: JAK biochemical assay (LANCE Ultra TR-FRET), TYK2. The note with it: recombinant TYK2, TR-FRET; read-out: Biochemical Assay (μM) TYK2. Put shortly:
as §1

For assay [1], the system named is STAT3 phosphorylation by IL-6 in TF-1 cells. Put plainly: JAK cellular assay: STAT3 phosphorylation by IL-6 in TF-1 cells (HTRF). The class given is cell-based. The note with it: Homo sapiens, TF-1, TF-1 cells, IL-6 30 ng/ml, pSTAT3 HTRF; read-out: Cell Based Assay (μM) TF-1/IL-6/pSTAT3. Put shortly: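 Phospho-STAT3 (IL-6, 30 ng/ml) and phospho-STAT5 (GMCSF, 5 ng/ml) read by HTRF in lysates after 20 min cytokine exposure, minus unstimulated-cell background. Cells were serum-starved overnight, plated at 120,000/well, given compound 30 min at 37 °C beforehand; DMSO 0.2% final.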

Assay [2] has as its system STAT5 phosphorylation by GMCSF in TF-1 cells. Put plainly: JAK cellular assay: STAT5 phosphorylation by GMCSF in TF-1 cells (HTRF). It is filed as cell-based. The note with it: Homo sapiens; TF-1 cells, GMCSF 5 ng/ml, pSTAT5 HTRF; read-out: Cell Based Assay (μM) TF-1/GMCSF/pSTAT5. The method, then:
TF-1 cells were starved overnight in OptiMEM medium with 0.5% charcoal stripped fetal bovine serum, 0.1 mM nonessential amino acids (NEAA), 1 mM sodium pyruvate and without phenol red in CO2 incubator maintained at 37° c. Next day, cells were resuspended in RPMI without phenol red and dispensed into a 96 well plate at a final cell density of 1,20,000 cells per well. Compounds were diluted in DMSO and added to cells and incubated for 30 minutes in CO2 incubator maintained at 37° c. Final DMSO concentration in cell based assay was 0.2%. Human recombinant cytokines, IL-6 (30 ng/ml) and GMCSF (5 ng/ml) were added to the plate containing cells along with compound and incubated for 20 minutes with gentle tapping at every 5 minutes once. Compound mediated effects on STAT3 and STAT5 phosphorylation was measured in the lysates prepared by using CISBIO pSTAT3 and pSTAT5 detection kits by HTRF method. Background signal obtained from cells which were not activated with cytokines, was subtracted from vehicle controls and compound treated wells.

T1 sequence (P23458 whole entry): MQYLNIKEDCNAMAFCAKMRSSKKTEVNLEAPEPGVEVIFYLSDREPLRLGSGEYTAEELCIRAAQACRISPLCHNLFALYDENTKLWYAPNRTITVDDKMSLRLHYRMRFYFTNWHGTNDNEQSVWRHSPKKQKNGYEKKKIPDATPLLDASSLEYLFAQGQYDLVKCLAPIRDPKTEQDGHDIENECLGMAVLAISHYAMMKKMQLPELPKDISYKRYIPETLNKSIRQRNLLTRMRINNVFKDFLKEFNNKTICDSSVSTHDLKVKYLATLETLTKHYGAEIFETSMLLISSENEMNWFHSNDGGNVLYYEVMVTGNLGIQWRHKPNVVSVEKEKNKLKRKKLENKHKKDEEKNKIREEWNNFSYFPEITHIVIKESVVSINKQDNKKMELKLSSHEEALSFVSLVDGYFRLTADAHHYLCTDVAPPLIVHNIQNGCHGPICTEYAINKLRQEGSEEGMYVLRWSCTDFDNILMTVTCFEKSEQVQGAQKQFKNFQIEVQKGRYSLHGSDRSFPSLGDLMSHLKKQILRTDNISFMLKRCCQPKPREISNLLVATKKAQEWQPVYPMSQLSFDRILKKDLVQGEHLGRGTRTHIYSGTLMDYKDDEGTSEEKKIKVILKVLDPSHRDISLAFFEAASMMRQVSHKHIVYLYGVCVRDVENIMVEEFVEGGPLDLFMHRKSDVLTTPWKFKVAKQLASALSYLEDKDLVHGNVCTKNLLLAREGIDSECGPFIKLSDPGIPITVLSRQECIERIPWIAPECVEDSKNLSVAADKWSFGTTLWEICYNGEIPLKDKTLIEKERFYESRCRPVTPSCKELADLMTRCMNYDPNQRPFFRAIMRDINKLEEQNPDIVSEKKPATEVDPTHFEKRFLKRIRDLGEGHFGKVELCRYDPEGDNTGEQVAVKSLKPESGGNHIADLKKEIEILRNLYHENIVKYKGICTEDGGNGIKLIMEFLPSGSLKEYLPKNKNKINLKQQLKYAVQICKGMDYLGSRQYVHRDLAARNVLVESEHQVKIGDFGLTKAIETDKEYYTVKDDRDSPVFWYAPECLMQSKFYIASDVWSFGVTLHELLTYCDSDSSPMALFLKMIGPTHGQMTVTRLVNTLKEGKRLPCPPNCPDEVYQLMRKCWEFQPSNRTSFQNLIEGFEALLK
T4 sequence (P29597 whole entry): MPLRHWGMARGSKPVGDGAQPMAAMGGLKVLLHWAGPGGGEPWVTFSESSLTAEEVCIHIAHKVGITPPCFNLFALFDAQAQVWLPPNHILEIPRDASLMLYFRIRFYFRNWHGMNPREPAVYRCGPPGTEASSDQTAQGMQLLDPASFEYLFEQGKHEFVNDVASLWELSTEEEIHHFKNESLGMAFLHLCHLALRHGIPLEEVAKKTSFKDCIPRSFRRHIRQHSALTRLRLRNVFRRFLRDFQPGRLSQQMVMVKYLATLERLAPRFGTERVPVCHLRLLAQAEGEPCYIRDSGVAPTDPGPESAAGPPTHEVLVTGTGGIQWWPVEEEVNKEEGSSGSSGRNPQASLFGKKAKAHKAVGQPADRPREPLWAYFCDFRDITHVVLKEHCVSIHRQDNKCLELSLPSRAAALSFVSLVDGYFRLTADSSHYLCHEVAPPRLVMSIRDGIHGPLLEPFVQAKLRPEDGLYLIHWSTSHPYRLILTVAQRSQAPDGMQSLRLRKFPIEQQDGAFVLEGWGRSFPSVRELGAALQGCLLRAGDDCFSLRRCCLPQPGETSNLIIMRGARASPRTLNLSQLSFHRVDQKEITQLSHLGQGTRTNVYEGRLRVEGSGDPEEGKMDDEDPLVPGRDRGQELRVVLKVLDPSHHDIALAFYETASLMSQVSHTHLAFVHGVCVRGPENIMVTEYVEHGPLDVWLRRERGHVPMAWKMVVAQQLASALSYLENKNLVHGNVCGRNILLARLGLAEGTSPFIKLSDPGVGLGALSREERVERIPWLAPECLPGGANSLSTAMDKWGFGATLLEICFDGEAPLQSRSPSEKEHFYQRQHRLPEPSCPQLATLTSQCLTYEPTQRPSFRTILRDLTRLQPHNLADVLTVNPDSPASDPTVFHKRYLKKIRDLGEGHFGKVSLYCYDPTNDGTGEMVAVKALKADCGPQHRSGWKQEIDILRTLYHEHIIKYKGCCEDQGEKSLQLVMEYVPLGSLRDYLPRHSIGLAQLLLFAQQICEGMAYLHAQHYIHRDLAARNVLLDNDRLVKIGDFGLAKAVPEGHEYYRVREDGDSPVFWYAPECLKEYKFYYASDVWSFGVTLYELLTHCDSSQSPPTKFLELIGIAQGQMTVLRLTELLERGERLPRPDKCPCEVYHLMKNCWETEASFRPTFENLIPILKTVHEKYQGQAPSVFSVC
T2 sequence (O60674 whole entry): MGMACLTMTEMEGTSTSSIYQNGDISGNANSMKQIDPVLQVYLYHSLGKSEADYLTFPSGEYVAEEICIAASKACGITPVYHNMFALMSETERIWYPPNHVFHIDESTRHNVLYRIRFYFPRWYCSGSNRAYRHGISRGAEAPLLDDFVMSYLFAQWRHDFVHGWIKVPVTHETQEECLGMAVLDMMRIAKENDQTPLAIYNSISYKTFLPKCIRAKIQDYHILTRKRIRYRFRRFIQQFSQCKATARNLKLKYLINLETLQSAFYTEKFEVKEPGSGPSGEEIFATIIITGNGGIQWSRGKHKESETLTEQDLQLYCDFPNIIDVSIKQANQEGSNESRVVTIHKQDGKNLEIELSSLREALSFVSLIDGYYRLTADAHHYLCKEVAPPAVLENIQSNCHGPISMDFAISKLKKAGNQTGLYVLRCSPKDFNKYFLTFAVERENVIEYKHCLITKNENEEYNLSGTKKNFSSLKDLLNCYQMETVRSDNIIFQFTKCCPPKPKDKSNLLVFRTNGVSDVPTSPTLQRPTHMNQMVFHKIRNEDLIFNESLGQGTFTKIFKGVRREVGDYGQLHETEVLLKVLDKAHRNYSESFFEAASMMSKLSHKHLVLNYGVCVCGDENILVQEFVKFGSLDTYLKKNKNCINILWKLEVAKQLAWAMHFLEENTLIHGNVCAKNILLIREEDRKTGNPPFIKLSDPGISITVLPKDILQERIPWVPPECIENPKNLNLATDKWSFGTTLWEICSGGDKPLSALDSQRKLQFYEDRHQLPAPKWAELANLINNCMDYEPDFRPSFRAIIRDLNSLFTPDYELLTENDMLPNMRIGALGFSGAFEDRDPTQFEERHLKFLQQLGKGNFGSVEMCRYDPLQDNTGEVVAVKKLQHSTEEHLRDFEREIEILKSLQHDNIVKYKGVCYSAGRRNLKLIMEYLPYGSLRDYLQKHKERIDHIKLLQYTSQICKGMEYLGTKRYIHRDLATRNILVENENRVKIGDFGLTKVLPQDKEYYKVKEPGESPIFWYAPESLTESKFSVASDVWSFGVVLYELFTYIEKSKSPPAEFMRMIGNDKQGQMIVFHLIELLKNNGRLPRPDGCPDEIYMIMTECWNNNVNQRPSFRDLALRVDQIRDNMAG

For `N#CCc1cccc(-n2cc(-c3ccnc4[nH]cnc34)cn2)c1` [Example 1106, 2-(3-(4-(3H-imidazo[4,5-b]pyridin-7-yl)-1H-pyrazol-1-yl)phenyl)acetonitrile], the IC50 is under 0.5 µM on Recombinant JAK1; under 0.5 µM on Recombinant JAK2; under 0.5 µM at Recombinant JAK3; over 1 µM at Recombinant TYK2; over 1 µM in assay [1]; over 10 µM in assay [2].

As for `CC(C)NC(=O)CCC(c1ccc(-n2cc(-c3ccnc4[nH]cnc34)cn2)nc1)C(F)(F)F` (stereo not drawn) [Example 1210, 4-(6-(4-(3H-imidazo[4,5-b]pyridin-7-yl)-1H-pyrazol-1-yl)pyridin-3-yl)-5,5,5-trifluoro-N-isopropylpentanamide], the IC50 on Recombinant JAK1 is under 0.1 µM; on Recombinant JAK2 it was under 0.1 µM; at Recombinant JAK3 it was under 0.1 µM; at Recombinant TYK2, over 1 µM; in assay [1], over 0.75 µM; in assay [2], over 1 µM.

With `N#CC1CC(NC(=O)n2cc(-c3ccnc4[nH]c(=O)[nH]c34)cn2)C1` (stereo not drawn) [Example 1056, N-(3-cyanocyclobutyl)-4-(2,3-dihydro-2-oxo-1H-imidazo[4,5-b]pyridin-7-yl)-1H-Pyrazole-1-carboxamide], the IC50 is under 0.5 µM on Recombinant JAK1; under 0.5 µM on Recombinant JAK2; under 0.5 µM on Recombinant JAK3; over 0.5 µM at Recombinant TYK2; over 10 µM in assay [1]; over 10 µM in assay [2].

With `CC(c1ccc(-n2cc(-c3ccnc4[nH]cnc34)cn2)nc1)S(C)(=O)=O` (stereo not drawn) [Example 1158, 7-(1-(5-(1-(methylsulfonyl)ethyl)pyridin-2-yl)-1H-pyrazol-4-yl)-3H-imidazo[4,5-b]pyridine], the IC50 on Recombinant JAK1 was under 0.1 µM; at Recombinant JAK2, over 0.1 µM; on Recombinant JAK3 it was over 0.1 µM; at Recombinant TYK2 it was over 1 µM; in assay [1], over 1 µM; in assay [2] it was over 1 µM.

Consider `N#CC1CN(CCC(c2ccc(-n3cc(-c4ccnc5[nH]cnc45)cn3)nc2)C(F)(F)F)C1` (stereo not drawn) [Example 1202, 1-(3-(6-(4-(3H-imidazo[4,5-b]pyridin-7-yl)-1H-pyrazol-1-yl)pyridin-3-yl)-4,4,4-trifluorobutyl)azetidine-3-carbonitrile], for which the IC50 on Recombinant JAK1 is under 0.1 µM; on Recombinant JAK2, over 0.1 µM; on Recombinant JAK3, under 0.1 µM; at Recombinant TYK2 it was over 0.5 µM; in assay [1] it was over 0.5 µM; in assay [2], over 1 µM.

Regarding `N#CC(c1ccc(-n2cc(-c3ccnc4[nH]cnc34)cn2)cc1)C1CC1` (stereo not drawn) [Example 1100, 2-(4-(4-(3H-imidazo[4,5-b]pyridin-7-yl)-1H-pyrazol-1-yl)phenyl)-2-cyclopropylacetonitrile], the IC50 at Recombinant JAK1 was over 0.5 µM; at Recombinant JAK2 it was over 0.5 µM; on Recombinant JAK3, over 0.5 µM; at Recombinant TYK2 it was over 10 µM; in assay [1] it was over 10 µM; in assay [2], over 10 µM.

Regarding `N#CC(c1ccc(-n2cc(-c3ccnc4[nH]cnc34)cn2)cc1)N1CCOCC1` (stereo not drawn) [Example 1101, 2-(4-(4-(3H-imidazo[4,5-b]pyridin-7-yl)-1H-pyrazol-1-yl)phenyl)-2-morpholinoacetonitrile], the IC50 is over 0.5 µM on Recombinant JAK1; over 0.5 µM at Recombinant JAK2; over 1 µM at Recombinant JAK3; over 10 µM on Recombinant TYK2; over 10 µM in assay [1]; over 10 µM in assay [2].

On to `FC(F)(F)C(CCN1CCOCC1)c1ccc(-n2cc(-c3ccnc4[nH]cnc34)cn2)nc1` (stereo not drawn) [Example 1201, 7-(1-(5-(1,1,1-trifluoro-4-morpholinobutan-2-yl)pyridin-2-yl)-1H-pyrazol-4-yl)-3H-imidazo[4,5-b]pyridine], for which the IC50 was under 0.1 µM at Recombinant JAK1; over 0.5 µM on Recombinant JAK2; under 0.1 µM on Recombinant JAK3; over 1 µM on Recombinant TYK2; over 0.5 µM in assay [1]; over 1 µM in assay [2].

On to `CCN1CC(C(O)(c2ccc(-n3cc(-c4ccnc5[nH]cnc45)cn3)nc2)C(F)(F)F)C1` (stereo not drawn) [Example 1239, 1-(6-(4-(3H-imidazo[4,5-b]pyridin-7-yl)-1H-pyrazol-1-yl)pyridin-3-yl)-1-(1-ethylazetidin-3-yl)-2,2,2-trifluoroethanol], for which the IC50 on Recombinant JAK1 was 0.006 µM; at Recombinant JAK2 it was 0.056 µM; at Recombinant JAK3, 0.023 µM; on Recombinant TYK2 it was 0.06 µM; in assay [1] it was 0.05 µM; in assay [2] it was 0.26 µM.

As for `N#CC1(c2ccc(-n3cc(-c4ccnc5[nH]cnc45)cn3)nc2)CC1` [Example 1109, 1-(6-(4-(3H-imidazo[4,5-b]pyridin-7-yl)-1H-pyrazol-1-yl)pyridin-3-yl)cyclopropanecarbonitrile], the IC50 is under 0.5 µM at Recombinant JAK1; under 0.5 µM at Recombinant JAK2; under 0.5 µM at Recombinant JAK3; over 10 µM at Recombinant TYK2; over 1 µM in assay [1]; over 10 µM in assay [2].

Consider `OC(c1cccc(-n2cc(-c3ccnc4[nH]cnc34)cn2)n1)C(F)(F)F` (stereo not drawn) [Example 1170, 1-(6-(4-(3H-imidazo[4,5-b]pyridin-7-yl)-1H-pyrazol-1-yl)pyridin-2-yl)-2,2,2-trifluoroethanol], for which the IC50 on Recombinant JAK1 was over 0.1 µM; on Recombinant JAK2, over 0.1 µM; at Recombinant JAK3 it was over 0.05 µM; at Recombinant TYK2 it was over 1 µM; in assay [1], over 10 µM; in assay [2] it was over 10 µM.

For the compound `CS(=O)(=O)CC(c1ccc(-n2cc(-c3ccnc4[nH]cnc34)cn2)nc1)C(F)(F)F` (stereo not drawn) [Example 1138, 7-(1-(5-(1,1,1-trifluoro-3-(methylsulfonyl)propan-2-yl)pyridin-2-yl)-1H-pyrazol-4-yl)-3H-imidazo[4,5-b]pyridine], the IC50 at Recombinant JAK1 was under 0.1 µM; at Recombinant JAK2 it was over 0.1 µM; at Recombinant JAK3, over 0.1 µM; at Recombinant TYK2 it was over 1 µM; in assay [1] it was over 1 µM; in assay [2], over 10 µM.

Regarding `N#CC(c1ccc(-n2cc(-c3ccnc4[nH]cnc34)cn2)nc1)N1CCS(=O)(=O)CC1` (stereo not drawn) [Example 1113, 2-(6-(4-(3H-imidazo[4,5-b]pyridin-7-yl)-1H-pyrazol-1-yl)pyridin-3-yl)-2-(1,1-dioxidothiomorpholino)acetonitrile], the IC50 was over 1 µM on Recombinant JAK1; over 0.1 µM at Recombinant JAK2; over 0.5 µM on Recombinant JAK3; over 1 µM at Recombinant TYK2; over 10 µM in assay [1]; over 10 µM in assay [2].
